Source: PubChem BioAssay AID1259407 (Chemical Carcinogenesis Research Information System (CCRIS), 2018)
The source made the active and inactive calls. How the calls were made is not given here.

System: CCRIS mutagenicity, Ames/micronucleus/aberration tests
Test: CCRIS mutagenicity studies
[1] = Test System: AMES SALMONELLA TYPHIMURIUM, Strain/Indicator: TA98, Metabolic Activation: NONE, Method: STANDARD PLATE
[2] = Test System: AMES SALMONELLA TYPHIMURIUM, Strain/Indicator: TA98, Metabolic Activation: RAT, LIVER, S-9, AROCLOR 1254, Method: STANDARD PLATE
[3] = Test System: AMES SALMONELLA TYPHIMURIUM, Strain/Indicator: TA100, Metabolic Activation: NONE, Method: STANDARD PLATE
[4] = Test System: AMES SALMONELLA TYPHIMURIUM, Strain/Indicator: TA100, Metabolic Activation: RAT, LIVER, S-9, AROCLOR 1254, Method: STANDARD PLATE
[5] = Test System: AMES SALMONELLA TYPHIMURIUM, Strain/Indicator: TA1535, Metabolic Activation: NONE, Method: STANDARD PLATE
[6] = Test System: AMES SALMONELLA TYPHIMURIUM, Strain/Indicator: TA1535, Metabolic Activation: RAT, LIVER, S-9, AROCLOR 1254, Method: STANDARD PLATE
[7] = Test System: AMES SALMONELLA TYPHIMURIUM, Strain/Indicator: TA1537, Metabolic Activation: NONE, Method: STANDARD PLATE
[8] = Test System: AMES SALMONELLA TYPHIMURIUM, Strain/Indicator: TA1537, Metabolic Activation: RAT, LIVER, S-9, AROCLOR 1254, Method: STANDARD PLATE
[9] = Test System: AMES SALMONELLA TYPHIMURIUM, Strain/Indicator: TA102, Metabolic Activation: NONE, Method: STANDARD PLATE

With COc1cc(N)c(OC)cc1N the mutagenic call [1] was “inactive; negative”, the mutagenic call [2] was “active; positive” and the mutagenic call [3] was “inactive; negative”. The mutagenic call [4] was “active; positive”, the mutagenic call [5] was “inactive; negative” and the mutagenic call [6] was “inactive; negative”. For the same compound, the mutagenic call [7] was “inactive; negative”, the mutagenic call [8] was “active; positive” and the mutagenic call (Test System: AMES SALMONELLA TYPHIMURIUM, Strain/Indicator: TA1538, Metabolic Activation: NONE, Method: STANDARD PLATE) was “active; positive”. The mutagenic call (Test System: AMES SALMONELLA TYPHIMURIUM, Strain/Indicator: TA1538, Metabolic Activation: RAT, LIVER, S-9, AROCLOR 1254, Method: STANDARD PLATE) was “active; positive”.
CC1(C)S[C@@H]2[C@H](NC(=O)COc3ccccc3)C(=O)N2[C@H]1C(=O)O was tested, and the mutagenic call (Test System: AMES SALMONELLA TYPHIMURIUM, Strain/Indicator: TA98, Metabolic Activation: HAMSTER, LIVER, S-9, AROCLOR 1254, Method: PREINCUBATION) was “inactive; negative”, the mutagenic call (Test System: AMES SALMONELLA TYPHIMURIUM, Strain/Indicator: TA98, Metabolic Activation: NONE, Method: PREINCUBATION) was “inactive; negative” and the mutagenic call (Test System: AMES SALMONELLA TYPHIMURIUM, Strain/Indicator: TA98, Metabolic Activation: RAT, LIVER, S-9, AROCLOR 1254, Method: PREINCUBATION) was “inactive; negative”. The mutagenic call (Test System: AMES SALMONELLA TYPHIMURIUM, Strain/Indicator: TA100, Metabolic Activation: HAMSTER, LIVER, S-9, AROCLOR 1254, Method: PREINCUBATION) was “inactive; negative”, the mutagenic call (Test System: AMES SALMONELLA TYPHIMURIUM, Strain/Indicator: TA100, Metabolic Activation: NONE, Method: PREINCUBATION) was “inactive; negative” and the mutagenic call (Test System: AMES SALMONELLA TYPHIMURIUM, Strain/Indicator: TA100, Metabolic Activation: RAT, LIVER, S-9, AROCLOR 1254, Method: PREINCUBATION) was “inactive; negative”. The mutagenic call (Test System: AMES SALMONELLA TYPHIMURIUM, Strain/Indicator: TA1535, Metabolic Activation: HAMSTER, LIVER, S-9, AROCLOR 1254, Method: PREINCUBATION) was “inactive; negative”, the mutagenic call (Test System: AMES SALMONELLA TYPHIMURIUM, Strain/Indicator: TA1535, Metabolic Activation: NONE, Method: PREINCUBATION) was “inactive; negative” and the mutagenic call (Test System: AMES SALMONELLA TYPHIMURIUM, Strain/Indicator: TA1535, Metabolic Activation: RAT, LIVER, S-9, AROCLOR 1254, Method: PREINCUBATION) was “inactive; negative”. The mutagenic call (Test System: AMES SALMONELLA TYPHIMURIUM, Strain/Indicator: TA1537, Metabolic Activation: HAMSTER, LIVER, S-9, AROCLOR 1254, Method: PREINCUBATION) was “inactive; negative”, the mutagenic call (Test System: AMES SALMONELLA TYPHIMURIUM, Strain/Indicator: TA1537, Metabolic Activation: NONE, Method: PREINCUBATION) was “inactive; negative” and the mutagenic call (Test System: AMES SALMONELLA TYPHIMURIUM, Strain/Indicator: TA1537, Metabolic Activation: RAT, LIVER, S-9, AROCLOR 1254, Method: PREINCUBATION) was “inactive; negative”. For the same compound, the mutagenic call (Test System: MOUSE LYMPHOMA, Strain/Indicator: L5178Y (TK+/TK-), Metabolic Activation: NONE, Method: SUSPENSION/PLATE) was “inactive; negative” and the mutagenic call (Test System: MOUSE LYMPHOMA, Strain/Indicator: L5178Y (TK+/TK-), Metabolic Activation: RAT, LIVER, S-9, Method: SUSPENSION/PLATE) was “active; positive”.
In the case of Clc1ccc2c(c1)C(c1ccccc1)=NCc1nncn1-2, the mutagenic call [1] is reported as “inactive; negative”, the mutagenic call [2] is reported as “inactive; negative” and the mutagenic call [3] is reported as “inactive; negative”. For the same compound, the mutagenic call [4] was “inactive; negative”, the mutagenic call [9] was “inactive; negative” and the mutagenic call (Test System: AMES SALMONELLA TYPHIMURIUM, Strain/Indicator: TA102, Metabolic Activation: RAT, LIVER, S-9, AROCLOR 1254, Method: STANDARD PLATE) was “inactive; negative”. The mutagenic call [5] was “inactive; negative”, the mutagenic call [6] was “inactive; negative” and the mutagenic call [7] was “inactive; negative”. For the same compound, the mutagenic call [8] was “inactive; negative”, the mutagenic call (Test System: E. COLI, Strain/Indicator: WP2 UVRA, Metabolic Activation: NONE, Method: STANDARD PLATE) was “inactive; negative” and the mutagenic call (Test System: E. COLI, Strain/Indicator: WP2 UVRA, Metabolic Activation: RAT, LIVER, S-9, AROCLOR 1254, Method: STANDARD PLATE) was “inactive; negative”.
With CC(C)(c1ccc(OP(O)O)cc1)c1ccc(OP(O)O)cc1 the mutagenic call (Test System: AMES SALMONELLA TYPHIMURIUM, Strain/Indicator: TA97, Metabolic Activation: NONE, Method: STANDARD PLATE) was “inactive; negative”, the mutagenic call (Test System: AMES SALMONELLA TYPHIMURIUM, Strain/Indicator: TA97, Metabolic Activation: S-9, Method: STANDARD PLATE) was “inactive; negative” and the mutagenic call [1] was “inactive; negative”. The mutagenic call (Test System: AMES SALMONELLA TYPHIMURIUM, Strain/Indicator: TA98, Metabolic Activation: S-9, Method: STANDARD PLATE) was “inactive; negative”, the mutagenic call [3] was “inactive; negative” and the mutagenic call (Test System: AMES SALMONELLA TYPHIMURIUM, Strain/Indicator: TA100, Metabolic Activation: S-9, Method: STANDARD PLATE) was “inactive; negative”. The mutagenic call [9] was “inactive; negative”, the mutagenic call (Test System: AMES SALMONELLA TYPHIMURIUM, Strain/Indicator: TA102, Metabolic Activation: S-9, Method: STANDARD PLATE) was “inactive; negative” and the mutagenic call (Test System: E.COLI, Strain/Indicator: WP2 (PKM101), Metabolic Activation: NONE, Method: STANDARD PLATE) was “inactive; negative”. For the same compound, the mutagenic call (Test System: E.COLI, Strain/Indicator: WP2 (PKM101), Metabolic Activation: S-9, Method: STANDARD PLATE) was “inactive; negative”.
